# Source: patent US6485955B1, “Quiescent cell dipeptidyl peptidase: a novel cytoplasmic serine protease” (The Trustees of Tufts University, priority 1997, dated 2002)
# Read-outs that look alike come from different tables or passages of the source. Peptide text beside a SMILES is read from it. * marks the point of attachment. Cbz = O=C(OCc1ccccc1)*; CH2F = FC*
# Tests used:
# [1] = target: QPP (Homo sapiens, UniProt Q9UHL4); test: AlaProAFC cleavage by PBMC cytosolic preparation (QPP peptidase activity); assay type: biochemical; conditions: for QPP inhibition (inhibitory profile): comparison with DPIV profile
# [2] = target: DPIV (Homo sapiens, UniProt P27487); conditions: cited from earlier work
# Chain of DPIV (P27487 whole entry): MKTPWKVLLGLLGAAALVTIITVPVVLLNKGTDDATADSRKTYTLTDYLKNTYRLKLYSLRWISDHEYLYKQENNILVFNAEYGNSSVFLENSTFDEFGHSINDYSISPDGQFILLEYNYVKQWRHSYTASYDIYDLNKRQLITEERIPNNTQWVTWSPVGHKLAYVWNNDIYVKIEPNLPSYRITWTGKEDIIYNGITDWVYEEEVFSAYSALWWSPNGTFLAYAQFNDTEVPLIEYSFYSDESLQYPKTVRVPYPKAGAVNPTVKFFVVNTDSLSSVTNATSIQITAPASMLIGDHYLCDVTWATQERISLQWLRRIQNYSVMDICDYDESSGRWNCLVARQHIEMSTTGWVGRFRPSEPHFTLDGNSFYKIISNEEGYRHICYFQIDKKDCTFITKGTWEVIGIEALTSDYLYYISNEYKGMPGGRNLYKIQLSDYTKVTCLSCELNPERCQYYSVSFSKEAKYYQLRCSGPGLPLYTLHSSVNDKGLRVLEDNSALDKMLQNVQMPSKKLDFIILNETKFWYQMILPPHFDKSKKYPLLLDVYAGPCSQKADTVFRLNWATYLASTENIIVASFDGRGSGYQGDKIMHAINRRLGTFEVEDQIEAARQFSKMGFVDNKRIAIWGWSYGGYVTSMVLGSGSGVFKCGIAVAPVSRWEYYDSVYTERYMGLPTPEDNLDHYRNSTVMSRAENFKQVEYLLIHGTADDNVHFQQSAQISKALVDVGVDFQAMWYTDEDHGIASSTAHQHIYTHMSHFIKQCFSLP
# [3] = test system: CD19+ B cells; test: VbP-induced death of B cells; assay type: cell-based, human
# [4] = test system: peripheral blood mononuclear cells (PBMC); test: Cell death in overnight cultures of freshly isolated PBMC; conditions: for number of dead cells / PCD induction in resting PBMC cultures: compared to media alone
# [5] = test system: phosphatidylserine (PS) on the surface of cells; test: FITC-annexin V detection of surface phosphatidylserine; assay type: cell-based, human; conditions: cells treated with VbP
# [6] = test system: activated PBMC; test: Induced death of activated PBMC (PHA blasts) and long term cultured cells; assay type: cell-based, human
# From the text: (§1) Methods. […] Sorted cell populations were >90% pure.
# [7] = test system: CD11b+ monocytes; test: VbP-induced death of monocytes; assay type: cell-based, human
# [8] = test system: purified T-cells (CD4+/CD8+); test: VbP-induced death of purified resting T-cells; assay type: cell-based, human; conditions: for effect on VbP-mediated T-cell death: added with VbP, non-cycling T-cells
# From the text: as §1
# [9] = test system: serum-starved, G0 phase fibroblasts; test: Apoptosis of serum-starved G0 fibroblasts transfected with QPP transgene; assay type: cell-based; conditions: compared to non-QPP transfected fibroblasts
# From the text: The role of QPP in protecting quiescent (non-cycling) cells from death was confirmed in fibroblasts transfected with a QPP transgene sequence using standard techniques.
# [10] = PBMC cytosolic preparation, high concentrations
compound,measurement,setting,value
NC(=O)CI [IAA],inhibition of cytosolic AlaProAFC cleaving enzymatic activity,[1],partially inhibited
"NC(CCCCNC(=O)OCc1ccc([N+](=O)[O-])cc1)C(=O)N1CCCCC1 (stereo not shown) [Lys-piperidide, NO2-Z-Lys-piperidide]",DPIV inhibition,[2],does not inhibit DPIV
same,QPP inhibition (inhibitory profile),[1],did inhibit QPP at higher concentrations than Lys-thiazolidide
"NC(CCCCNC(=O)OCc1ccc([N+](=O)[O-])cc1)C(=O)N1CCSC1 (stereo not shown) [Lys-thiazolidide, NO2-Z-Lys-thiazolidide]",QPP inhibition (inhibitory profile),[1],most potent inhibitors
CCN1C(=O)C=CC1=O [NEM],inhibition of cytosolic AlaProAFC cleaving enzymatic activity,[1],partially inhibited
O=S(=O)(F)Cc1ccccc1 [PMSF],inhibition of cytosolic AlaProAFC cleaving enzymatic activity,[1]; [10],partially inhibited
Cc1ccc(S(=O)(=O)N[C@@H](CCCCN)C(=O)CCl)cc1 [TLCK],inhibition of cytosolic AlaProAFC cleaving enzymatic activity,[1],partially inhibited
"CC(C)[C@H](N)C(=O)N1CCC[C@H]1B(O)O [VbP, Val-boroPro]",susceptibility to VbP-induced death,[3],resistant
same,time at which dead cells were apparent after addition,[4]; PBMC cultures,4 h
same,time to maximal death,[4]; PBMC cultures,≤ 24 h
same,maximal death,"[4]; PBMC cultures, within 24 hours",about 70%
same,number of dead cells / PCD induction in resting PBMC cultures,[4],striking increase in the number of dead cells
same,amount of PS on the surface of cells (FITC-annexin V),[5],time-dependent increase
same,susceptibility of activated PBMC to induced PCD,[6],resistant
same,susceptibility to VbP-induced PCD after return to non-cycling phase (G0),[6]; activated PBMC maintained in culture until G0,regain sensitivity
same,susceptibility to VbP-induced death,[7],resistant
same,T-cell death in CD26+ versus CD26- resting T-cell subpopulations,[8]; CD26+ and CD26- resting T-cells,to the same degree
same,susceptibility to VbP-induced death,[8]; purified T-cells (CD4+/CD8+) vs whole PBMC,greater sensitivity than whole PBMC
same,inhibition of cytosolic AlaProAFC cleaving enzymatic activity,"[1]; PBMC cytosolic preparation (110,000 g supernatant)",inhibited
same,QPP inhibition (inhibitory profile),[1],most potent inhibitors
COC(=O)C[C@H](NC(=O)[C@H](C)NC(=O)[C@@H](NC(=O)OCc1ccccc1)C(C)C)C(=O)CF [Z-VADfmk] (Cbz-Val-Ala-Asp(OMe)-CH2F),effect on VbP-mediated T-cell death,[8],blocked
N=C(N)c1ccccc1 [benzamidine],inhibition of cytosolic AlaProAFC cleaving enzymatic activity,[1]; [10],partially inhibited
CC(C)[C@@H](N)C(=O)N1CCC[C@H]1B(O)O [d-Val-d-boroPro],number of dead cells / PCD induction in resting PBMC cultures,[4],inactive
CC(=O)N[C@@H](CSC(=O)[C@]1([C@@H](O)C(C)C)NC(=O)[C@H](C)[C@@H]1O)C(=O)O [lactacystin],number of dead cells / PCD induction in resting PBMC cultures,[4],does not induce PCD
same,susceptibility of activated PBMC to induced PCD,[6],susceptible
same,effect on VbP-mediated T-cell death,[8],neither the anti-Fas mAb M3 nor lactacystin had any effect
(Z)-Ala-[CF═C]-Pro-NHO-Bz(4NO2) [L-125],QPP inhibition (inhibitory profile),[1],did not inhibit QPP
recombinant QPP: recombinant quiescent cell post-prolyl dipeptidase polypeptide expressed from a transgene in fibroblasts,apoptosis of quiescent fibroblasts,[9],inhibited apoptosis
